{"source": "ChEMBL document CHEMBL3885861", "about": "“Open TG-GATES”", "species_on_record": "Rattus norvegicus", "experiment": "Open TG-GATES - Regimen: Single", "assay_type": "toxicity, organism-based, Sprague-Dawley", "design": "regimen Single, gender Male, age 6 weeks", "conditions": "in vivo, iv, 0 mg/kg, route intravenous injection, dose level Control; for KIDNEY_L / KIDNEY_R / KIDNEY_TOTAL: tissue Kidney; for LIVER: tissue Liver"}
{"sequence": "CISPLATIN", "values": [{"measurement": "TERMINAL_BW", "setting": "3 h", "value": 217.6, "unit": "g"}, {"measurement": "Bas", "setting": "3 h, tissue Blood", "value": 0, "unit": "%"}, {"measurement": "Eos", "setting": "3 h, tissue Blood", "value": 1, "unit": "%"}, {"measurement": "Fbg", "setting": "3 h, tissue Blood", "value": 292.4, "unit": "mg/dL"}, {"measurement": "Ht", "setting": "3 h, tissue Blood", "value": 40.6, "unit": "%"}, {"measurement": "Lym", "setting": "3 h, tissue Blood", "value": 82.4, "unit": "%"}, {"measurement": "MCHC", "setting": "3 h, tissue Blood", "value": 32.6, "unit": "%"}, {"measurement": "MCV", "setting": "3 h, tissue Blood", "value": 65.7, "unit": "fL"}, {"measurement": "Mono", "setting": "3 h, tissue Blood", "value": 2.2, "unit": "%"}, {"measurement": "PT", "setting": "3 h, tissue Blood", "value": 15.3, "unit": "s"}, {"measurement": "Plat", "setting": "3 h, tissue Blood", "value": 125.7, "unit": "x10_4/uL"}, {"measurement": "RBC", "setting": "3 h, tissue Blood", "value": 617.8, "unit": "x10_4/ul"}, {"measurement": "Ret", "setting": "3 h, tissue Blood", "value": 6.8, "unit": "%"}, {"measurement": "WBC", "setting": "3 h, tissue Blood", "value": 111, "unit": "x10_2/uL"}, {"measurement": "KIDNEY_L", "setting": "3 h", "value": 1, "unit": "g"}, {"measurement": "KIDNEY_R", "setting": "3 h", "value": 1, "unit": "g"}, {"measurement": "KIDNEY_TOTAL", "setting": "3 h", "value": 1.9, "unit": "g"}, {"measurement": "ALP", "setting": "3 h, tissue Plasma", "value": 1441.2, "unit": "IU/L"}, {"measurement": "ALT", "setting": "3 h, tissue Plasma", "value": 48.4, "unit": "IU/L"}, {"measurement": "AST", "setting": "3 h, tissue Plasma", "value": 80.6, "unit": "IU/L"}, {"measurement": "BUN", "setting": "3 h, tissue Plasma", "value": 13.6, "unit": "mg/dL"}, {"measurement": "CRE", "setting": "3 h, tissue Plasma", "value": 0.2, "unit": "mg/dL"}, {"measurement": "Ca", "setting": "3 h, tissue Plasma", "value": 11, "unit": "mg/dL"}, {"measurement": "DBIL", "setting": "3 h, tissue Plasma", "value": 0, "unit": "mg/dL"}, {"measurement": "IP", "setting": "3 h, tissue Plasma", "value": 8.7, "unit": "mg/dL"}, {"measurement": "K", "setting": "3 h, tissue Plasma", "value": 4.2, "unit": "meq/L"}, {"measurement": "LDH", "setting": "3 h, tissue Plasma", "value": 188.6, "unit": "IU/L"}, {"measurement": "PL", "setting": "3 h, tissue Plasma", "value": 126.6, "unit": "mg/dL"}, {"measurement": "RALB", "setting": "3 h, tissue Plasma", "value": 2.9, "unit": "g/dL"}, {"measurement": "TBIL", "setting": "3 h, tissue Plasma", "value": 0.02, "unit": "mg/dL"}, {"measurement": "TC", "setting": "3 h, tissue Plasma", "value": 71, "unit": "mg/dL"}, {"measurement": "TG", "setting": "3 h, tissue Plasma", "value": 54.8, "unit": "mg/dL"}, {"measurement": "TP", "setting": "3 h, tissue Plasma", "value": 5.4, "unit": "g/dL"}, {"measurement": "gamma-GTP", "setting": "3 h, tissue Plasma", "value": 2, "unit": "IU/L"}, {"measurement": "TERMINAL_BW", "setting": "6 h", "value": 210.4, "unit": "g"}, {"measurement": "APTT", "setting": "6 h, tissue Blood", "value": 22.8, "unit": "s"}, {"measurement": "Bas", "setting": "6 h, tissue Blood", "value": 0, "unit": "%"}, {"measurement": "Eos", "setting": "6 h, tissue Blood", "value": 1, "unit": "%"}, {"measurement": "Fbg", "setting": "6 h, tissue Blood", "value": 275.4, "unit": "mg/dL"}, {"measurement": "Hb", "setting": "6 h, tissue Blood", "value": 13, "unit": "g/dL"}, {"measurement": "Ht", "setting": "6 h, tissue Blood", "value": 39.7, "unit": "%"}, {"measurement": "Lym", "setting": "6 h, tissue Blood", "value": 83.4, "unit": "%"}, {"measurement": "MCH", "setting": "6 h, tissue Blood", "value": 21.1, "unit": "pg"}, {"measurement": "MCHC", "setting": "6 h, tissue Blood", "value": 32.7, "unit": "%"}, {"measurement": "MCV", "setting": "6 h, tissue Blood", "value": 64.3, "unit": "fL"}, {"measurement": "Mono", "setting": "6 h, tissue Blood", "value": 3, "unit": "%"}, {"measurement": "Plat", "setting": "6 h, tissue Blood", "value": 115.2, "unit": "x10_4/uL"}, {"measurement": "RBC", "setting": "6 h, tissue Blood", "value": 617.6, "unit": "x10_4/ul"}, {"measurement": "Ret", "setting": "6 h, tissue Blood", "value": 6.5, "unit": "%"}, {"measurement": "WBC", "setting": "6 h, tissue Blood", "value": 152.3, "unit": "x10_2/uL"}, {"measurement": "KIDNEY_L", "setting": "6 h", "value": 0.9, "unit": "g"}, {"measurement": "KIDNEY_R", "setting": "6 h", "value": 1, "unit": "g"}, {"measurement": "KIDNEY_TOTAL", "setting": "6 h", "value": 1.9, "unit": "g"}, {"measurement": "LIVER", "setting": "6 h", "value": 9.2, "unit": "g"}, {"measurement": "ALP", "setting": "6 h, tissue Plasma", "value": 1766.6, "unit": "IU/L"}, {"measurement": "ALT", "setting": "6 h, tissue Plasma", "value": 44, "unit": "IU/L"}, {"measurement": "AST", "setting": "6 h, tissue Plasma", "value": 76.8, "unit": "IU/L"}, {"measurement": "BUN", "setting": "6 h, tissue Plasma", "value": 12.6, "unit": "mg/dL"}, {"measurement": "CRE", "setting": "6 h, tissue Plasma", "value": 0.2, "unit": "mg/dL"}, {"measurement": "DBIL", "setting": "6 h, tissue Plasma", "value": 0, "unit": "mg/dL"}, {"measurement": "IP", "setting": "6 h, tissue Plasma", "value": 9.5, "unit": "mg/dL"}, {"measurement": "K", "setting": "6 h, tissue Plasma", "value": 4.5, "unit": "meq/L"}, {"measurement": "LDH", "setting": "6 h, tissue Plasma", "value": 165.8, "unit": "IU/L"}, {"measurement": "Na", "setting": "6 h, tissue Plasma", "value": 139.2, "unit": "meq/L"}, {"measurement": "PL", "setting": "6 h, tissue Plasma", "value": 128.6, "unit": "mg/dL"}, {"measurement": "RALB", "setting": "6 h, tissue Plasma", "value": 2.8, "unit": "g/dL"}, {"measurement": "TBIL", "setting": "6 h, tissue Plasma", "value": 0, "unit": "mg/dL"}, {"measurement": "TC", "setting": "6 h, tissue Plasma", "value": 67.2, "unit": "mg/dL"}, {"measurement": "TG", "setting": "6 h, tissue Plasma", "value": 81.6, "unit": "mg/dL"}, {"measurement": "TP", "setting": "6 h, tissue Plasma", "value": 5.2, "unit": "g/dL"}, {"measurement": "gamma-GTP", "setting": "6 h, tissue Plasma", "value": 1.6, "unit": "IU/L"}, {"measurement": "TERMINAL_BW", "setting": "9 h", "value": 208.8, "unit": "g"}, {"measurement": "APTT", "setting": "9 h, tissue Blood", "value": 24.1, "unit": "s"}, {"measurement": "Bas", "setting": "9 h, tissue Blood", "value": 0, "unit": "%"}, {"measurement": "Eos", "setting": "9 h, tissue Blood", "value": 0.6, "unit": "%"}, {"measurement": "Fbg", "setting": "9 h, tissue Blood", "value": 257.6, "unit": "mg/dL"}, {"measurement": "Hb", "setting": "9 h, tissue Blood", "value": 13, "unit": "g/dL"}, {"measurement": "Ht", "setting": "9 h, tissue Blood", "value": 39.9, "unit": "%"}, {"measurement": "Lym", "setting": "9 h, tissue Blood", "value": 79.8, "unit": "%"}, {"measurement": "MCHC", "setting": "9 h, tissue Blood", "value": 32.7, "unit": "%"}, {"measurement": "MCV", "setting": "9 h, tissue Blood", "value": 64, "unit": "fL"}, {"measurement": "Mono", "setting": "9 h, tissue Blood", "value": 2.4, "unit": "%"}, {"measurement": "Neu", "setting": "9 h, tissue Blood", "value": 16.4, "unit": "%"}, {"measurement": "Plat", "setting": "9 h, tissue Blood", "value": 119.1, "unit": "x10_4/uL"}, {"measurement": "RBC", "setting": "9 h, tissue Blood", "value": 623, "unit": "x10_4/ul"}, {"measurement": "Ret", "setting": "9 h, tissue Blood", "value": 5.8, "unit": "%"}, {"measurement": "WBC", "setting": "9 h, tissue Blood", "value": 90.6, "unit": "x10_2/uL"}, {"measurement": "KIDNEY_L", "setting": "9 h", "value": 0.9, "unit": "g"}, {"measurement": "KIDNEY_R", "setting": "9 h", "value": 1, "unit": "g"}, {"measurement": "KIDNEY_TOTAL", "setting": "9 h", "value": 1.9, "unit": "g"}, {"measurement": "LIVER", "setting": "9 h", "value": 8.9, "unit": "g"}, {"measurement": "ALP", "setting": "9 h, tissue Plasma", "value": 1337.6, "unit": "IU/L"}, {"measurement": "ALT", "setting": "9 h, tissue Plasma", "value": 39.8, "unit": "IU/L"}, {"measurement": "AST", "setting": "9 h, tissue Plasma", "value": 74.2, "unit": "IU/L"}, {"measurement": "BUN", "setting": "9 h, tissue Plasma", "value": 12.8, "unit": "mg/dL"}, {"measurement": "CRE", "setting": "9 h, tissue Plasma", "value": 0.1, "unit": "mg/dL"}, {"measurement": "DBIL", "setting": "9 h, tissue Plasma", "value": 0, "unit": "mg/dL"}, {"measurement": "GLC", "setting": "9 h, tissue Plasma", "value": 184.8, "unit": "mg/dL"}, {"measurement": "K", "setting": "9 h, tissue Plasma", "value": 4.2, "unit": "meq/L"}, {"measurement": "LDH", "setting": "9 h, tissue Plasma", "value": 139.8, "unit": "IU/L"}, {"measurement": "Na", "setting": "9 h, tissue Plasma", "value": 139.8, "unit": "meq/L"}, {"measurement": "PL", "setting": "9 h, tissue Plasma", "value": 130.2, "unit": "mg/dL"}, {"measurement": "RALB", "setting": "9 h, tissue Plasma", "value": 2.9, "unit": "g/dL"}, {"measurement": "TBIL", "setting": "9 h, tissue Plasma", "value": 0.02, "unit": "mg/dL"}, {"measurement": "TP", "setting": "9 h, tissue Plasma", "value": 5.4, "unit": "g/dL"}, {"measurement": "gamma-GTP", "setting": "9 h, tissue Plasma", "value": 1.6, "unit": "IU/L"}]}
